Assay results from patent US20130225629A1, “TARGETING PI3K/MTOR SIGNALLING AND NEUTROPHIL RECRUITMENT FOR TREATMENT OF ENTERITIS” (THE UNIVERSITY OF NORTH CAROLINA AT CHAPEL HILL, priority 2012, published 2013).

Experiments:
[1] = tested on: IL-17; assay: ELISA of IL-17 secreted from cultured colon explants and MLN; assay type: in vivo; settings: rapamycin-treated infected mice vs control
Experimental: (§1) Colonic tissue, MLNs, and spleen were weighed, minced with scissors, and incubated in 1 mL 3% fetal bovine serum and 1% antibiotics RPMI medium in a 24-well plate. After 18-hour incubation, medium was collected and centrifuged at 7000 rpm for 5 minutes. Supernatant was collected and stored at −80° C. IL-1β and IL-17 (A) concentrations were assessed by enzyme-linked immunosorbent assay kits (R&D Systems, Minneapolis, Minn., United States of America) following the manufacturer's specification. The IL-17 enzyme-linked immunosorbent assay has no cross-reactivity to IL-17B, C, D, E, and F.

[2] = tested on: Tnfα mRNA; assay: Real-time RT-PCR of colonic Tnfα mRNA; assay type: in vivo, mice; settings: rapamycin treatment
Experimental: (§2) Total RNA from colonic tissue was extracted using TRIzol® kit (Invitrogen, Carlsbad, Calif., United States of America). Complementary DNA was prepared using M-MLV (Invitrogen). Messenger RNA levels of proinflammatory genes were determined using SYBR® Green PCR Master Mix (Applied Biosystems, Carlsbad, Calif., United States of America) on an ABI 7900HT Fast Real-Time PCR System and normalized to Gapdh. The polymerase chain reactions were performed according to the manufacturer's recommendation. The following gene primers were used: Gapdh_forward: 5′-[…]-3′ (SEQ ID NO: 2), Gapdh_reverse: 5′-[…]-3′ (SEQ ID NO: 3), II-1_forward: 5′-[…]-3′ (SEQ ID NO: 4), II-1_reverse: 5′-[…]-3′ (SEQ ID NO: 5), Cxcl2_forward: 5′-[…]-3′ (SEQ ID NO: 6), Cxcl2_reverse: 5′-[…]-3′ (SEQ ID NO: 7), II-17a_forward: 5′-[…]-3′ (SEQ ID NO: 8), II-17a_reverse: 5′-[…]-3′ (SEQ ID NO: 9), II12p40_forward: […] (SEQ ID NO: 10), II12p40_reverse: […] (SEQ ID NO: 11), Tnf forward: […] (SEQ ID NO: 12), Tnf reverse: […] (SEQ ID NO: 13).

[3] = tested on: IL-1β; assay: ELISA of IL-1β secreted from cultured colon explants and MLN; assay type: in vivo; settings: rapamycin-treated infected mice vs control
Experimental: as §1

[4] = tested on: II1β mRNA; assay: Real-time RT-PCR of colonic II1β mRNA; assay type: in vivo, mice
Experimental: as §2
(§3) Total RNA from intestinal tissues was extracted using TRIzol® kit (Invitrogen, Carlsbad, Calif., United States of America) following the manufacture's guide. cDNA was reverse-transcribed using M-MLV (Invitrogen). Proinflammatory 111β, Cxcl2, II17a and Tnfα mRNA expression levels were measured using SYBR® Green PCR Master mix (Applied Biosystems, Carlsbad, Calif., United States of America) on an ABI 7900HT Fast Real-Time PCR System and normalized to Gapdh. The PCR primers used were reported previously. (Sun et al., 2012). The PCR reactions were performed for 40 cycles according to the manufacturer's recommendation, and RNA fold changes were calculated using the ΔΔct method.

[5] = tested on: Cxcl2 mRNA; assay: Real-time RT-PCR of colonic Cxcl2 mRNA; assay type: in vivo, mice
Experimental: as §2, §3

[6] = tested on: C. jejuni; assay type: in vivo, mice; settings: colon, rapamycin treatment vs infected untreated mice
Source text: All animal protocols were approved by the Institutional Animal Care and Use Committee of the University of North Carolina at Chapel Hill (Chapel Hill, N.C., United States of America). Germ-free 8 to 12 week old II10^−/−; NF-κBEGFP (129/SvEv; C57BL/6 mixed background) mice were transferred from germ-free isolators and immediately gavaged with 10^9 C. jejuni cfu/mouse (strain 81-176 (Korlath et al., 1985)). Mice were then housed under Specific Pathogen-Free (SPF) conditions and sacrificed at 5 or 12 days. Germ-free II10^−/−; NF-κB^EGFP mice were also gavaged with 10^7 Salmonella typhimurium (S. typhimurium strain CA32) cfu/mouse for 2 days or 10^7 Escherichia coli (E. coli strain NC 101) cfu/mouse for 12 days. Conventionally-derived II10^−/−; NF-κB^EGFP mice were put on an antibiotic cocktail (streptomycin 2 g/L, gentamycin 0.5 g/L, bacteriocin 1 g/L and ciprofloxacin 0.125 g/L) in water for 7 days and antibiotics withdrawn 24 hours prior to infection. The mice were then gavaged with 10^9 C. jejuni cfu/mouse for 14 days. To inhibit mTOR signaling, mice were injected daily intraperitoneally (i.p.) with rapamycin (1.5 mg/kg) (Fisher Scientific, Hampton, N.H., United States of America). At the end of the experiment, mice were euthanized using CO2 intoxication. Colon, mesenteric lymph nodes (MLN) and spleen were collected for further processing RNA, protein or C. jejuni culture on Campylobacter selective blood plates (Remel, Thermo Scientific, Hampton, N.H., United States of America) for 48 h at 37° C. using the GasPak system (Becton Dickinson, Franklin Lakes, N.J., United States of America). […] Colons were fixed in 10% buffered formalin (Fisher Scientific, Hampton, N.H., United States of America) overnight, paraffin-embedded, sectioned, and stained with H&E for histological evaluation. Images were acquired using a DP71 camera and DP Controller 3.1.1.276 (Olympus, Center Valley, Pa., United States of America). Intestinal inflammation was scored by evaluating the degree of lamina propria immune cell infiltration, goblet cell depletion, architectural distortion, as well as crypt hyperplasia, ulceration, and abscesses using a score from 0-4. (Lippert et al., 2009). Cecal and colonic inflammation induced by S. typhimurium was evaluated using a score from 0-13 as described. (Hapfelmeier et al., 2005).
MLN and spleen were aseptically resected. Colon tissue was opened, resected and washed three times in sterile PBS. […] C. jejuni colonies were counted and data presented as colony forming unit (cfu)/g tissue.

[7] = tested on: II-17a mRNA; assay: Real-time RT-PCR of colonic II-17a mRNA; assay type: in vivo, mice
Experimental: as §2, §3

[8] = tested on: Gr-1+/CD45+ cells; assay: Flow cytometry of peripheral blood neutrophils (Gr-1+/CD45+); assay type: in vivo; settings: rapamycin-treated infected vs untreated infected mice
Experimental: To assess blood neutrophils, mice were sacrificed and peripheral blood was drawn and mixed with an anticoagulant (20 μL 96 mmol/L EDTA). White blood cells were collected following erythrocyte lysis. The cells were then incubated with antibodies against CD45 (PE conjugated), Gr-1 (fluorescein isothiocyanate conjugated) (eBiosciences, San Diego, Calif., United States of America). To analyze the change of CD4^+ cells after antibody-mediated depletion, freshly isolated splenocytes and MLNs from C jejuni-infected mice were then incubated with PE-conjugated antibodies against CD4 (eBiosciences, San Diego, Calif., United States of America). The cells were analyzed on a Cyan flow cytometer (Beckman Coulter, Inc., Brea, Calif., United States of America) to determine the proportion of total immune cells, neutrophils, or CD4^+ T cells, respectively. The results were then analyzed on Summit software (Beckman Coulter, Inc., Brea, Calif., United States of America).

[9] = tested on: II-12p40 mRNA; assay: Real-time RT-PCR of colonic II-12p40 mRNA; assay type: in vivo, mice; settings: rapamycin treatment
Experimental: as §2

[10] = supernatant of cultured colon explants
[11] = colon, rapamycin-treated, C. jejuni-infected mice
[12] = wortmannin vs vehicle-treated infected mice

SMILES | attenuation of IL-17 production ([1]; MLN) | reduction of secreted IL-17 [1, 10] | C. jejuni-induced colonic Tnfα mRNA accumulation [2] | reduction of IL-1β production ([3]; MLN) | reduction of IL-1β production [3, 10] | attenuation of C. jejuni induced I1-1β mRNA accumulation [4, 11] | attenuation of C. jejuni induced Cxcl2 mRNA accumulation [5, 11] | reduction of C. jejuni colonic invasion (culture count) [6] | attenuation of C. jejuni induced II-17a mRNA accumulation [7, 11] | decrease of ratio of Gr-1+/CD45+ cells in the blood [8] | C. jejuni-induced colonic II-12p40 mRNA accumulation [9] | block of C. jejuni-induced I11β mRNA accumulation [4, 12] | block of C. jejuni-induced Cxcl2 mRNA accumulation [5, 12] | block of C. jejuni-induced II17a mRNA accumulation [7, 12]
CO[C@H]1C[C@@H]2CC[C@@H](C)[C@@](O)(O2)C(=O)C(=O)N2CCCC[C@H]2C(=O)O[C@H]([C@H](C)C[C@@H]2CC[C@@H](O)[C@H](OC)C2)CC(=O)[C@H](C)/C=C(\C)[C@@H](O)[C@@H](OC)C(=O)[C@H](C)C[C@H](C)/C=C/C=C/C=C/1C [rapamycin] | 82% | 94% | not significantly inhibited | 41% | 59% | 79% | 75% | 90% | 92% | 41% | not significantly inhibited |  |  | 
COC[C@H]1OC(=O)c2coc3c2[C@@]1(C)C1=C(C3=O)[C@@H]2CCC(=O)[C@@]2(C)C[C@H]1OC(C)=O [wortmannin] |  |  |  |  |  |  |  |  |  |  |  | 50% | 77% | 78%
